Laboratory results from patent US20240150396A1 (The Texas A&M University System, priority 2021, published 2024).
Where two headings read alike, the source gives them in different places. Non-standard residues stand in square brackets, D forms with d. Residues, ends and D or L forms follow the SMILES beside them. *: point of attachment. Phe(2-OMe) = COc1ccccc1C[C@H](N)C(=O)O; AMC = Cc1cc(=O)oc2cc(N*)ccc12; Cbz = O=C(OCc1ccccc1)*

Assays:
[1] = Thiolation of inhibitors with glutathione, LCMS; type: physicochemical; conditions: 1 mM glutathione, 0.5 mM compound, Tris pH 8.0, 10% DMSO, room temperature
Description: Samples were analyzed by HPLC-MS (as described above) by injecting 0.01 mL aliquots onto a Luna […] C18(2) 100 Å, 4.6 mm, 50 mm column (Phenomenex) using the HPLC method described in the chemistry section at 0-6 h time points. […] Integration of the chromatographic peaks of the inhibitors and their GSH adducts at each time point was used to determine the rate of GSH adduct formation.

cruzain [2] = target: T1, cruzain (Trypanosoma cruzi, UniProt P25779); test: biochemical; conditions: pH 7.5
T1 sequence (P25779 123-467 limits assumed): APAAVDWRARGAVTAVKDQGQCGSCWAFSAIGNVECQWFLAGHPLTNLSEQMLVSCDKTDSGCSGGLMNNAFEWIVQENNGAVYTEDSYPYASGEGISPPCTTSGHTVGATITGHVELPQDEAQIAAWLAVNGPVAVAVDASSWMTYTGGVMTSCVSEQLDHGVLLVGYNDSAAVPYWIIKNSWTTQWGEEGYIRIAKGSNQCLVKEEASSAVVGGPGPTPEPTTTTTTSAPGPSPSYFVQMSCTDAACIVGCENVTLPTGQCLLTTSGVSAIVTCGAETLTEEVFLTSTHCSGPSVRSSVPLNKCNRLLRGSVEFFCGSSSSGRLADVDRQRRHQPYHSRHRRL
Description: All enzyme assays were performed at 25° C. Initial rates of the peptidolytic reaction catalyzed by cruzain were measured by monitoring the fluorescence generated by cleavage of the dipeptide-AMC bond. Assays were conducted in 96-well plates (Greiner; flat-bottom, clear black plates) in a total volume of 250 μL, containing either 50 mM MES (pH 7.5), 50 mM TAPSO, 100 mM DEA, 1 mM CHAPS, 1 mM Na2EDTA, 5 mM DTT, and 10% DMSO (v/v) or 50 mM sodium acetate (pH 5.5), 50 mM MES, 100 mM TEA, 1 mM CHAPS, 1 mM Na2EDTA, 5 mM DTT, and 10% DMSO (v/v). Substrates were dissolved in 100% DMSO and were then diluted 10-fold such that when added to reaction mixtures, final DMSO concentration was 10% (v/v). […] Fluorescence was measured on either a SpectraMax M5 (Molecular Devices) or a Synergy HTX (BioTek, Winooski, VT) microplate reader (λex=360 nm, λem=460 nm). Initial rates were determined from continuous kinetic time courses and calculated from the earliest time points, typically at less than 10 min.
(2) Enzyme and compound were preincubated over extended periods of time, and then aliquots were removed and diluted 50-fold to 100-fold into reaction mixtures containing 10 μM Cbz-Phe-Arg-AMC, followed by the assessment of the resulting time courses.
Data for time-dependent inhibition were fitted by several methods.
Values of kobs versus [inhibitor] were then replotted and fitted to eq 4 for which k3 and k4 represent the respective rates of formation and dissolution of the EI* complex as depicted in FIG. 9.
In addition, time-course data were fitted globally by two methods. First, expressions for vs, vi, and kobs were substituted into eq 3 to generate eq 6, which was used to fit time-course data at all concentrations of inhibitors simultaneously. Second, time-course data were fitted using KinTek Explorer as either a single-binding step model with the two kinetic parameters k3/Ki and k4 or a two-step binding mechanism as shown in FIG. 9 from which rate constants k1-k4 are determined (Supporting Information).
Enzyme Assays. The preparation of cruzain and 3CL^pro were described in previous publications.^8, 34 The evaluation of inhibitors was modified from our lab protocol and described briefly as follows.^35 All enzyme assays were conducted in 96-well, clear bottom, black plates at 25° C., and fluorescence emanating from product formation was measured using either a SpectraMax M5 (Molecular Devices) or a Synergy HTX (Biotek) microplate reader, with excitation at λex=360 nm and emission at λem=460 nm. […] Reactions were started with addition of enzyme (typically, to a final concentration of 0.2 nM for cruzain or 40 nM for 3CL^pro), and the time courses were recorded for 0.5-1 h.
Kinetic Data Analysis. All time-course data were fitted to eq. 1, wherein P is the fluorescence generated by formation of AMC or liberated ACC, C is the background constant, vi and vs are respectively initial-state and steady-state reaction rates, t is time, and kobs is the observed rate of conversion of the initial inhibited rate to the final inhibited rate.^46
Overall inhibition constants (Ki* values) were obtained by fitting vs/v0 to eq. 4, wherein vs and v0 are steady-state reaction rates in the presence and absence of inhibitor respectively, [S] and [I] represent the fixed concentration of substrate and variable inhibitor, Km is the Michaelis constant of the substrate.

human cathepsin L = human cathepsin L (Homo sapiens (Human), UniProt P07711); test: Human cathepsin L inhibition, Z-FR-AMC assay; type: biochemical
Chain of human cathepsin L (P07711 114-333): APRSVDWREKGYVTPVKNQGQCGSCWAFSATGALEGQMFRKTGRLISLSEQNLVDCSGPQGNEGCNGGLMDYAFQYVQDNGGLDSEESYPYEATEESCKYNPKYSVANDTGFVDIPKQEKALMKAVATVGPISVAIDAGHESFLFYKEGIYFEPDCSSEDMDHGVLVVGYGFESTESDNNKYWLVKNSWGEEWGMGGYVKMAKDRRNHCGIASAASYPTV
Description: (§1) Recombinant human cathepsins B and L were purchased from Millipore Sigma and used without further treatment. The solid proteins were dissolved into a solution of 50 mM sodium acetate (pH 5.5), 1 mM EDTA, 1 mM CHAPS, 10% (v/v) DMSO, and 5 mM DTT to final concentrations of […] in 20-mL aliquots, and stored at −80° C. until needed. These samples were then diluted into the same buffer to concentrations of −100 nM, and these dilutions were stored at 4° C. and used daily until depletion.
(§2) For assays of cathepsin L and B, inhibitors were evaluated in 0.25-mL reaction mixtures containing a buffer of sodium acetate (pH 5.5), 1 mM CHAPS, 1 mM Na2EDTA, and 5 mM DTT at 25° C. The fluorogenic substrate Cbz-Phe-Arg-7-amino-4-methyl-coumarin (Z-FR-AMC) was dissolved in 100% DMSO, as were all inhibitors, and aliquots of both substrates and inhibitors were added to reaction mixtures to final concentrations of DMSO of 10% (v/v). […] Formation of the fluorescent product AMC was monitored over 30-60-minute time courses for reaction mixtures in 96-well black microplates (Corning Costar®). Rates of peptidolysis of the dipeptide-AMC substrate(s) were measured on either a SpectraMax M5 (Molecular Devices) or a Synergy HTX (Biotek, Wisnooki, VT) microplate reader with λex=360 nm, λem=460 nm in ≥8-sec intervals. Control samples excluded substrate. The measured relative fluorescence units (RFUs) of generated AMC were converted to reaction rates of μM/s by use of a standard curve of known AMC concentrations obtained for both plate readers.

cruzain [3] = target: T1, cruzain; test: Kinetic parameters of peptide substrates for cruzain; type: biochemical; conditions: for Km / kcat / kcat/Km: pH 7.5, 25° C., 10% DMSO; for kcat rel: relative to Cbz-Phe-Arg-AMC
Description: All enzyme assays were performed at 25° C. Initial rates of the peptidolytic reaction catalyzed by cruzain were measured by monitoring the fluorescence generated by cleavage of the dipeptide-AMC bond. Assays were conducted in 96-well plates (Greiner; flat-bottom, clear black plates) in a total volume of 250 μL, containing either 50 mM MES (pH 7.5), 50 mM TAPSO, 100 mM DEA, 1 mM CHAPS, 1 mM Na2EDTA, 5 mM DTT, and 10% DMSO (v/v) or 50 mM sodium acetate (pH 5.5), 50 mM MES, 100 mM TEA, 1 mM CHAPS, 1 mM Na2EDTA, 5 mM DTT, and 10% DMSO (v/v). Substrates were dissolved in 100% DMSO and were then diluted 10-fold such that when added to reaction mixtures, final DMSO concentration was 10% (v/v). Reactions were initiated with the addition of 1-10 μL of cruzain (final concentrations: 0.1-3.0 nM (preincubation studies)). Fluorescence was measured on either a SpectraMax M5 (Molecular Devices) or a Synergy HTX (BioTek, Winooski, VT) microplate reader (λex=360 nm, λem=460 nm). Initial rates were determined from continuous kinetic time courses and calculated from the earliest time points, typically at less than 10 min.
Initial velocity data for cruzain-catalyzed reactions of fluorogenic peptide substrates were determined by fitting to eq 1 using GraphPad Prism 6.0 or SigmaPlot 12.0. For eq 1, kcat is the turnover number, [E]t is the concentration of active sites of cruzain, and Ka is the Michaelis constant for the substrate A. Cruzain concentrations were determined by spectrophotometric analysis of purified sample solutions as described.^44

human cathepsin B = human cathepsin B (Homo sapiens (Human), UniProt P07858); test: Human cathepsin B inhibition, Z-FR-AMC assay; type: biochemical
Description: as §1, §2

SARS-CoV-2 3CL protease = SARS-CoV-2 3CL protease (Severe acute respiratory syndrome coronavirus 2 (2019-nCoV) (SARS-CoV-2), UniProt P0DTD1); test: biochemical; type: biochemical; conditions: read-out: Ki* 3CLpro
[4] = test system: T. b. brucei procyclic forms; test: Growth of axenic cultures of T. b. brucei procyclic forms (PCFs); type: cell-based, Trypanosoma brucei brucei; conditions: Trypanosoma brucei, axenic culture; read-out: EC50 T. b. brucei PCF
[5] = test system: T. cruzi (Ca-I/72) in C2C12 murine cardiomyoblasts; test: T. cruzi-infected murine cardiomyoblasts (C2C12); type: cell-based, Trypanosoma cruzi; conditions: read-out: EC50 T. cruzi-infected cardiomyoblasts
Description: For the evaluation of the antitrypanocidal activity of cruzain inhibitors, we infected a C2C12 mouse cardiomyoblast cell line (ATCC CRL-1772) with T. cruzi strain Ca-I/72 (a gift from James Dvorak, National Institutes of Health) in […] plates. […] The plates were incubated at 37° C. for 48 h, and the wells were fixed with 2% paraformaldehyde in PBS and stained with 5 μg mL-1 4,6-diamidino-2-phenylindole. After at least 30 min of incubation at room temperature in the dark, the plates were read in an automated microscope, ImageXpress Micro XL (Molecular Devices), and the images were analyzed by custom-built software to quantify and assess viability of the parasites, as well as the host cells independently. The compilation of data was used to calculate the antiparasitic activity (EC50) and host cytotoxicity (CC50).
T. cruzi infection was evaluated in C2C12 murine cardiomyoblast cells. 384-microwell plates containing C2C12 murine cardiomyoblast cells were infected with 10^3 and 10^4 cells of T. cruzi (Ca-I/72), to which was added 3-fold serially-dilutions of inhibitor with maximal concentrations of 10 μM, followed by incubation at 37° C. for 2 days. The wells were fixed with 2% PFA in PBS, and stained by 5 μg/ml of DAPI. After >30 min of incubation in a dark environment, the plates were read on an ImageXpress MicroXL microscope (Molecular Devices). The images were analyzed to quantify parasites as well host cells.

[6] = test system: T. b. brucei bloodstream forms; test: Growth of axenic cultures of T. b. brucei bloodstream forms (BSFs); conditions: Trypanosoma brucei, read-out: EC50 T. b. brucei BSF, axenic culture
Description: Selected cruzain inhibitors were evaluated in axenic cell cultures of T. b. brucei and T. cruzi. Procyclic trypomastigotes of T. b. brucei (ATCC PRA-381) were grown in the SDM-79 medium at 26° C., and bloodstream forms (ATCC PRA-383) were grown at 37° C. in the HMI-9 medium at 5% C02. […] Both forms of T. b. brucei and T. cruzi were grown in media containing 10% fetal bovine serum (FBS) and penicillin/streptomycin (50 U mL^−1). […] Control samples contained equal amounts of DMSO. T. b. brucei and T. cruzi (5 mL in flask cultures) were seeded at ˜3×10^6 cells and diluted daily, maintaining a mid-log growth phase for up to 120 h. […] After each cell dilution, fresh compound or an equal volume of DMSO (control samples) was supplemented into the cultures, while maintaining a constant concentration of each inhibitor. Cell counts were scored using a Z2 Coulter Counter.
In vitro Cell Assays. Bloodstream form T. b. brucei strain SM427 was grown in HM1-9 medium that included fetal bovine serum (10%) and antibiotics (100 U/mL penicillin-streptomycin, Gibco™). Inhibitors dissolved in 100% (v/v) DMSO stock solutions were added at final concentrations of 0.5-20 μM (final concentrations of DMSO were <1% (v/v)). T. b. brucei were seeded at ˜1×10^6 cells at 37° C., and diluted daily to maintain a log phase of growth for up to 96 h. […] After each dilution, the cell cultures were supplemented with inhibitor or DMSO (control) to keep concentrations constant. Cell density was determined and graphed as previously reported.^36 Trypanosomes were quantified using a Z2 Coulter Counter, and values of EC50 were determined after 3-4 days of treatment by the interpolation method of Huber and Koella.^37

[7] = apparent tight-binding inhibition constant, 25° C., read-out: Ki*
[8] = obtained >10 minutes following initiation of reaction by addition of enzyme, read-out: Ki* Cruzain
[9] = Trypanosoma cruzi, C2C12, C2C12 murine cardiomyoblasts

Structure (SMILES): O=C(N[C@@H](Cc1ccccc1)C(=O)N[C@H](/C=C/c1nccs1)Cc1ccccc1)OCc1ccccc1 [Compound 25, Benzyl ((S)-1-Oxo-3-phenyl-1-(((S,E)-1-phenyl-4-(thiazol-2-yl)-but-3-en-2-yl)amino)propan-2-yl)carbamate]
- Rate of Thiolation, k [1]: Negligible
- Ki (cruzain [2]; [7]): 1710 nM

Structure (SMILES): C[n+]1ccsc1/C=C/[C@H](Cc1ccccc1)NC(=O)[C@H](Cc1ccccc1)NC(=O)OCc1ccccc1.[I-] [Compound 26, 2-((S,E)-3-((S)-2-(((Benzyloxy)carbonyl)amino)-3-phenylpropanamido)-4-phenylbut-1-en-1-yl)-3-methylthiazol-3-ium Iodide]
- Rate of Thiolation, k [1]: 0.25 ± 0.083 M⁻¹ s⁻¹
- Ki (cruzain [2]; [7]): 940 ± 60 nM

Structure (SMILES): Cc1cc(=O)oc2cc(NC(=O)[C@H](CCCN=C(N)N)NC(=O)[C@H](Cc3ccccc3)NC(=O)OCc3ccccc3)ccc12 [Compound S1, Cbz-Phe-Arg-AMC] (Cbz-Phe-Arg-{AMC})
- Km (human cathepsin L; pH 5.5): 2.9 µM
- Km (cruzain [3]): 0.89 ± 0.09 µM
- kcat (cruzain [3]): 9.6 ± 0.2 s⁻¹
- kcat/Km (cruzain [3]): 1.1e+07 ± 1e+06 M⁻¹ s⁻¹
- Km (cruzain [3]; listed as Cbz-Phe-Arg-AMC): 0.9 µM
- kcat/Km (cruzain [3]; listed as Cbz-Phe-Arg-AMC): 1.1e+07 M⁻¹ s⁻¹
- kcat rel (cruzain [3]): 1.00
- Km (human cathepsin B; pH 5.5): 150 µM

Structure (SMILES): COc1ccccc1C[C@@H](C=O)NC(=O)[C@H](Cc1ccccc1)NC(=O)OCc1ccccc1 [Compound 29] (Cbz-Phe-[Phe(2-OMe)]-aldehyde)
- Ki (SARS-CoV-2 3CL protease): > 10000 nM
- Ki (cruzain [2]; [8]): 22 nM

Structure (SMILES): Cc1ccc2c(c1)C[C@H](NC(=O)[C@H](Cc1ccccc1)NC(=O)OCc1ccccc1)C(O)O2 (stereo partly drawn) [Compound 32, Benzyl ((2S)-1-(((3S)-2-hydroxy-6-methylchroman-3-yl)amino)-1-oxo-3-phenylpropan-2-yl)carbamate]
- Ki (SARS-CoV-2 3CL protease; pH 7.5): > 10000 nM
- Ki (human cathepsin L; pH 5.5, 25° C., read-out: Ki* hCatL): 58 ± 2 nM
- EC50 [4]: 7000 nM
- EC50 ([5]; C2C12 murine cardiomyoblasts): 3000 to 5700 nM
- EC50 [5, 9]: 5700 ± 600 nM
- EC50 [6]: 500 nM
- Ki (cruzain [2]; Ki* Cruzain, obtained >10 minutes following initiation of reaction by addition of enzyme): 100 nM
- Ki (cruzain [2]; [8]): 103 ± 5 nM
- Ki (human cathepsin B; pH 5.5, 25° C., read-out: Ki* hCatB): 6100 ± 900 nM

Structure (SMILES): NCCCC[C@@H](/C=C/c1ccccn1)NC(=O)[C@H](Cc1ccccc1)NC(=O)OCc1ccccc1 [Compound 20, (S,E)-5-((S)-2-(((Benzyloxy)carbonyl)amino)-3-phenylpropanamido)-7-(pyridin-2-yl)hept-6-en-1-aminium Chloride]
- EC50 [5, 9]: 5000 to 8000 nM
- Ki (cruzain [2]; apparent initial inhibition constant, 25° C., read-out: Ki): 17300 ± 300 nM
- Ki (cruzain [2]; [7]): 870 nM

Structure (SMILES): Cc1cc(=O)oc2cc(NC(=O)[C@H](CCCN=C(N)N)NC(=O)[C@H](CC(C)C)NC(=O)OCc3ccccc3)ccc12 [Compound S4, Cbz-Leu-Arg-AMC]
- Km (cruzain [3]): 2.2 ± 0.3 µM
- kcat (cruzain [3]): 8.4 ± 0.4 s⁻¹
- kcat/Km (cruzain [3]): 3.8e+06 ± 700000 M⁻¹ s⁻¹
- kcat rel (cruzain [3]): 0.88
